Laboratory results from patent publication US20130102009A1, “SIRTUIN ACTIVATORS AND ACTIVATION ASSAYS” (priority 2010, published 2013).

Key:
[1] = biological target: Ac-Arg-His-Lys-Lys^Ac-AMC; experiment: ITC binding of STACs to Ac-Arg-His-Lys-Lys^Ac-X, X=AMC; conditions: 10% DMSO for SRT1720, SRT2183 and 10, no cosolvent for SRT1460
Protocol: (§1) ITC experiments were performed using either a VP-ITC system or iTC200 system (MicroCal) at 26° C. in a buffer composed of 137 mM NaCl, 2.7 mM KCl, 1 mM MgCl2, 2 mM TCEP, 5% (v/v) glycerol and 50 mM HEPES-NaOH, pH 7.3. SIRT1(183-664) was purified and dialyzed against the buffer, centrifuged, and degassed before the experiment. The peptide and compounds were dissolved in the final dialysis buffer and their pH values were adjusted to match that of the protein solution. […] To characterize this interaction using the iTC200 system, 1 mM TAMRA-peptide was injected in 20 aliquots of 2 μL, (except the first injection, which was 0.5 μL) into a 0.202 mL sample cell containing 100 μM STAC. For STACs with poor solubility, the concentrations were adjusted accordingly. […] In all cases, data was corrected for the heat of dilution and fitted using a nonlinear least-squares routine using a single-site binding model with Origin for ITC v7.0383 (Microcal) with the stoichiometry (n), the enthalpy of the reaction (ΔH) and the association constant (Ka) calculated. Table 2 summarizes Kd values for the binding of STACs to […]. Note that except for SRT1460, the solubility of the compounds required that these ITC experiments be done in solutions containing 10% DMSO.

[2] = biological target: Ac-Arg-His-Lys-Lys^Ac-NH2; experiment: ITC binding of STACs to Ac-Arg-His-Lys-Lys^Ac-X, X=NH2; conditions: 10% DMSO for SRT1720, SRT2183 and 10, no cosolvent for SRT1460
Protocol: as §1

[3] = biological target: Ac-Arg-His-Lys-Lys^Ac-Phe-NH2; experiment: ITC binding of STACs to Ac-Arg-His-Lys-Lys^Ac-X, X=PheNH2; conditions: 10% DMSO for SRT1720, SRT2183 and 10, no cosolvent for SRT1460
Protocol: as §1

[4] = biological target: Ac-Arg-His-Lys-Lys^Ac-Trp-NH2; experiment: ITC binding of STACs to Ac-Arg-His-Lys-Lys^Ac-X, X=TrpNH2; conditions: 10% DMSO for SRT1720, SRT2183 and 10, no cosolvent for SRT1460
Protocol: as §1

SIRT1 = biological target: T1, SIRT1 (Homo sapiens, UniProt Q96EB6); experiment: Continuous PNC1-GDH-coupled assay of SIRT1-catalyzed deacetylation of Ac-Arg-His-Lys-Lys^Ac-X with STACs; assay type: biochemical; conditions: [SRT]o = 5 μM, [peptide]o ≦ Km, [NAD+] = 70 μM; for Relative Velocity, X=AMC: Ac-Arg-His-Lys-Lys^Ac-AMC; for Relative Velocity, X=Ala-NH2: Ac-Arg-His-Lys-Lys^Ac-Ala-NH2; for Relative Velocity, X=NH2: Ac-Arg-His-Lys-Lys^Ac-NH2; for Relative Velocity, X=Phe-NH2: Ac-Arg-His-Lys-Lys^Ac-Phe-NH2
T1 sequence (Q96EB6 1-747): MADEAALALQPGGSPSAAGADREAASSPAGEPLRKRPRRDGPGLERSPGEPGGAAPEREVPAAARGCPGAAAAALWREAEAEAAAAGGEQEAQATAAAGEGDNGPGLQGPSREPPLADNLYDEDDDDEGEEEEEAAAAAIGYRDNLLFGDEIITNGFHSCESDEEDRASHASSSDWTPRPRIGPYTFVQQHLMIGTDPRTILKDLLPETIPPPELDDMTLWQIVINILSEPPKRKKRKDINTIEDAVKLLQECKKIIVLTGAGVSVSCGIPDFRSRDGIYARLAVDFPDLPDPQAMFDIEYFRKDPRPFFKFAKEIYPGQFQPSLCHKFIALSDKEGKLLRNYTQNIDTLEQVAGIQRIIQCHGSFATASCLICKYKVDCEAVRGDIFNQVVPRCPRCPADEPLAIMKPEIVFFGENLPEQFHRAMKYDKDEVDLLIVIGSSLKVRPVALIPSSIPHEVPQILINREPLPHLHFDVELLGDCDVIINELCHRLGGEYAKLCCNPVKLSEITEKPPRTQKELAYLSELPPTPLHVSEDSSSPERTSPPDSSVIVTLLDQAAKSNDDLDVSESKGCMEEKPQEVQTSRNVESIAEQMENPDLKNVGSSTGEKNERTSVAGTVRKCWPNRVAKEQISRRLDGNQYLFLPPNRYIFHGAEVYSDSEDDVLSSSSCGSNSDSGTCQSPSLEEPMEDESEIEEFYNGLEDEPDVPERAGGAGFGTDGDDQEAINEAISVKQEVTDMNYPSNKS
Protocol: Bovine glutamate dehydrogenase (GDH), α-ketoglutarate, NADH and NAD^+ were from Sigma Chemical Company. […] The nicotinamidase PNC1 was prepared as described by Denu and colleagues (Smith et al. (2009) Anal Biochem 394, 101-109). To determine the interaction of STACs with SIRT1 two kinetic methods were employed. […] (2007) Nature 450, 712-716). The other, used with peptides of general structure […], used a continuous, enzyme-coupled method reported previously (Smith et al. (2009) Anal Biochem 394, 101-109), in which the SRT1 product nicotinamide is first converted into nicotinic acid and ammonia by the action of PNC1, and the ammonia then used by GDH to convert α-ketoglutarate into glutamate. This reaction occurs with oxidation of NADH to NAD^+ which is accompanied by a change in absorbance at 340 nm (Δε340=-6,200 M^-1 cm^-1). The kinetic experiments used to characterize activators were run on a Perkin Elmer Lambda 25 spectrophotometer equipped with a water-jacketed, eight-cell changer maintained at 25° C. In a typical kinetic experiment, all components of the reaction solution except SIRT1 were added to a 1 mL cuvette and allowed to reach thermal equilibrium. Final concentrations of the coupling system components were: 1 μM PNC1, 0.23 mM NADH, 3.4 mM α-ketoglutarate, and 20 U/mL bovine GDH. This solution also contained peptide substrate, NAD^.0., and activator, at concentrations indicated in the text. The final DMSO concentration was kept constant at 1%, and the buffer used in these experiments was 50 mM HEPES, 150 mM NaCl, pH 7.5. While the system was reaching thermal equilibrium, the absorbance was monitored to provide an accurate estimate of the background rate, which was subtracted from the reaction rate after the addition of SIRT1. Activator titrations were plotted as relative velocity (i.e., the ratio of vx, velocity in the presence of activator X, to vo, velocity in the absence of activator) vs. [X]o, initial concentration of activator, and fit by nonlinear least-squares to the mechanism-independent expression for enzyme activation of […] the maximum relative velocity (i.e., vx/vo at infinite [X]o) and EC50 is the activator concentration at which vx/vo=(RVmax-1)/2. EC50 is a function of the kinetic mechanisms of both catalysis and activation, and the concentrations of substrates.

SMILES | Kd [1] | Kd [2] | Kd [3] | Kd [4] | Kd for binding to Ac-Arg-His-Lys-Lys^Ac-X, X=TrpNH2 [4] | Relative Velocity, X=AMC (SIRT1) | Relative Velocity, X=Ala-NH2 (SIRT1) | Relative Velocity, X=NH2 (SIRT1) | Relative Velocity, X=Phe-NH2 (SIRT1) | Relative Velocity, X=Trp-NH2 (SIRT1; Ac-Arg-His-Lys-Lys^Ac-Trp-NH2)
O=C(Nc1ccccc1-c1cn2c(CN3CCNCC3)csc2n1)c1cnc2ccccc2n1 [SRT1720] | > 500 µM | > 500 µM | > 500 µM | 150 µM | binds | 1.0 | 0.9 | 1.1 | 0.9 | 
O=C(Nc1ccccc1-c1cn2c(CN3CC[C@@H](O)C3)csc2n1)c1ccc2ccccc2c1 [SRT2183] | > 50 µM | > 50 µM | > 50 µM | > 50 µM |  | 1.1 | 0.8 | 1.2 | 1.0 | 1.0
